Measured values published in patent US12089595B2, “Pseudomonas strains and their metabolites to control plant diseases” (T3 Bioscience, Inc., priority 2020, dated 2024).
In brackets after ≈: the same amount, converted by molar mass. Read-outs that look alike come from different tables or passages of the source.

Legend:
[1] = tested on: Pseudomonas syringae pv. lachrymans 1188-1; test: MIC antimicrobial assay (CLSI, 96 well plates); assay type: cell-based; conditions: Pseudomonas syringae pv. lachrymans 1188-1 (Angular Leaf Spot of Cucurbits)
[2] = tested on: Clavibacter michiganensis subsp. michiganensis Cmm 0317; test: MIC antimicrobial assay (CLSI, 96 well plates); assay type: cell-based
[3] = tested on: Erwinia amylovora CA11 (streptomycin-resistant); test: microbe, parasite or virus in culture; assay type: cell-based
[4] = tested on: X. arboricola pv. Juglandis Xaj417; test: microbe, parasite or virus in culture; assay type: cell-based, Xanthomonas arboricola pv. Juglandis; conditions: Xanthomonas arboricola, read-out: Diameter of the zone of inhibition
[5] = tested on: Dickeya dadantii 3937; test: MIC antimicrobial assay (CLSI, 96 well plates); assay type: cell-based; conditions: Dickeya dadantii 3937 (soft rot)
[6] = tested on: Pseudomonas soli 0617-T307; test: MIC antimicrobial assay (CLSI, 96 well plates)
[7] = tested on: Xanthomonas bacteria (Xanthomonas axonopodis pv. citri); test: MIC antimicrobial assay; assay type: cell-based
[8] = tested on: Erwinia amylovora DM1 (streptomycin-resistant); test: microbe, parasite or virus in culture; assay type: cell-based
[9] = tested on: Pseudomonas syringae pv syringae 7046; test: MIC antimicrobial assay (CLSI, 96 well plates); assay type: cell-based; conditions: Pseudomonas syringae pv syringae 7046 (Bacterial canker or blast)
[10] = tested on: Pectobacterium parmentieri UPP163 936; test: MIC antimicrobial assay (CLSI, 96 well plates); assay type: cell-based; conditions: UPP163936; Pectobacterium parmentieri UPP163 936 (soft rot)
[11] = tested on: Erwinia amylovora 898 (streptomycin-resistant); test: microbe, parasite or virus in culture; assay type: cell-based
[12] = tested on: Xanthomonas arboricola pv. Juglandis 219; test: MIC antimicrobial assay (CLSI, 96 well plates); assay type: cell-based
[13] = tested on: R. solanacearum Pss; test: microbe, parasite or virus in culture; assay type: cell-based; conditions: Ralstonia solanacearum, read-out: Diameter of the zone of inhibition
[14] = tested on: Pectobacterium carotovorum subsp. carotovorum wpp14 945; test: MIC antimicrobial assay (CLSI, 96 well plates); assay type: cell-based; conditions: Pectobacterium carotovorum subsp. carotovorum wpp14 945 (soft rot)
[15] = tested on: Clavibacter michiganensis subsp. michiganensis Cmm 0690; test: MIC antimicrobial assay (CLSI, 96 well plates); assay type: cell-based
[16] = tested on: E coli O157:H7; test: MIC antimicrobial assay (CLSI, 96 well plates); assay type: cell-based
[17] = tested on: E. amylovora 110; test: Greenhouse blossom blight assay on crabapples trees (RejuAgro A); assay type: in vivo, Erwinia amylovora
Experimental: To evaluate the biological control activity of RejuAgro A against Erwinia amylovora, greenhouse infection assay on crabapples trees was conducted at the University of Wisconsin-Milwaukee. Ten μg/mL was supplemented with 1% Polyethylene glycol (PEG) 4000 or 1% PEG4000 (negative control) were applied on full bloom trees flowers 3 hours prior to the inoculation and 24 hours post-inoculation. Approximately 10^8 CFU/mL of E. amylovora 110 strain resuspended in water was used as inoculum. The infection rate was calculated at around day 6 post inoculation. RejuAgro A can effectively suppress the blossom blight (Table 6).

[18] = tested on: Flavobacterium columnare MS-FC-4; test: MIC antimicrobial assay (CLSI, 96 well plates); assay type: cell-based; conditions: MSFC4; Flavobacterium columnare MS-FC-4 (Fish columnaris disease), SHIEH
[19] = tested on: X. arboricola pv. Juglandis Xaj219; test: microbe, parasite or virus in culture; assay type: cell-based, Xanthomonas arboricola pv. Juglandis; conditions: Xanthomonas arboricola, read-out: Diameter of the zone of inhibition
[20] = tested on: Pseudomonas syringae pv. tomato PT30; test: MIC antimicrobial assay (CLSI, 96 well plates); assay type: cell-based; conditions: Pseudomonas syringae pv. tomato PT30 (Tomato bacterial speck)
[21] = tested on: R. solanacearum K60; test: microbe, parasite or virus in culture; assay type: cell-based; conditions: Ralstonia solanacearum, K60, read-out: Diameter of the zone of inhibition
[22] = tested on: Methicillin-resistant staphylococcus aureus USA300; test: microbe, parasite or virus in culture; assay type: cell-based
[23] = tested on: Xanthomonas campestris pv. vesicatoria XV-16; test: MIC antimicrobial assay (CLSI, 96 well plates); assay type: cell-based; conditions: Xanthomonas campestris pv. vesicatoria XV-16 (Tomato bacterial spot)
[24] = tested on: Xanthomonas campestris pv. Pruni; test: MIC antimicrobial assay (CLSI, 96 well plates); assay type: cell-based; conditions: Xanthomonas campestris pv. Pruni (Bacterial Spot of Peach)
[25] = tested on: Clavibacter michiganensis subsp. michiganensis NCPPB382; test: MIC antimicrobial assay (CLSI, 96 well plates); assay type: cell-based
[26] = tested on: Pectobacterium carotovorum subsp. brasiliensis 944; test: MIC antimicrobial assay (CLSI, 96 well plates); assay type: cell-based; conditions: Pectobacterium carotovorum subsp. brasiliensis 944 (soft rot)
[27] = tested on: Erwinia amylovora 1189; test: MIC antimicrobial assay (CLSI, 96 well plates); assay type: cell-based
[28] = tested on: Erwinia amylovora 110; test: microbe, parasite or virus in culture; assay type: cell-based
[29] = tested on: Xanthomonas axonopodis pv. citri N40-SO5; test: MIC antimicrobial assay (CLSI, 96 well plates); assay type: cell-based
[30] = tested on: Pectobacterium atrosepticum 942; test: MIC antimicrobial assay (CLSI, 96 well plates); assay type: cell-based; conditions: Pectobacterium atrosepticum 942 (soft rot)
[31] = tested on: Flavobacterium columnare #2; test: MIC antimicrobial assay (CLSI, 96 well plates); assay type: cell-based; conditions: Flavobacterium columnare #2 (Fish columnaris disease), TYES
[32] = tested on: Pseudomonas savastanoi pv. savastanoi; test: MIC antimicrobial assay (CLSI, 96 well plates); assay type: cell-based
[33] = tested on: P. syringae (pv. tomato PT30, pv syringae 7046, pv. lachrymans 1188-1); test: MIC antimicrobial assay; conditions: Pseudomonas syringae
[34] = tested on: Xanthomonas axonopodis pv. citri-Miami XC2002-00010; test: MIC antimicrobial assay (CLSI, 96 well plates); assay type: cell-based
[35] = Staphylococcus aureus, MRSA / USA300

Compound	MIC [1]	MIC [2]	MIC ([3]; Erwinia amylovora)	MIC [5]	MIC ([6]; Pseudomonas soli, 0617T307)	MIC [7]	MIC ([8]; Erwinia amylovora)	MIC [9]	MIC [10]	MIC ([11]; Erwinia amylovora)	MIC [14]	MIC [15]	MIC [16]	MIC [18]	MIC [20]	MIC [22, 35]	MIC [23]	MIC ([24]; read-out: MIC)	MIC [25]	MIC [26]	also measured
CSC1=C(C)C(=O)C(=O)NC1=O [RejuAgro A]	10 µg/mL (≈ 54 µM)	1.56 µg/mL (≈ 8.42 µM)	10 µg/mL (≈ 54 µM)	40 µg/mL (≈ 216 µM)	> 40 µg/mL	5 µg/mL (≈ 27 µM)	10 µg/mL (≈ 54 µM)	20 µg/mL (≈ 108 µM)	40 µg/mL (≈ 216 µM)	10 µg/mL (≈ 54 µM)	40 µg/mL (≈ 216 µM)	12.5 µg/mL (≈ 67.5 µM)	40 µg/mL (≈ 216 µM)	5 µg/mL (≈ 27 µM)	40 µg/mL (≈ 216 µM)	> 40 µg/mL	2.5 µg/mL (≈ 13.5 µM)	40 µg/mL (≈ 216 µM)	6.25 µg/mL (≈ 33.7 µM)	40 µg/mL (≈ 216 µM)	zone of inhibition at 2000 µg/mL [4]: 10 mm; MIC ([6]; Pseudomonas soli 0617-T307 (RejuAgro A producer), LB media): >40 µg/mL; MIC ([12]; Xanthomonas arboricola): 6.25 µg/mL (≈ 33.7 µM); zone of inhibition at 2000 µg/mL [13]: 5 mm; Infection rate ([17]; 10 μg/mL with 1% PEG4000, 3 hours prior and 24 hours post-inoculation, around day 6, negative control 50.8%): 12.3%; zone of inhibition at 2000 µg/mL [19]: 5 mm; zone of inhibition at 2000 µg/mL [21]: 4 mm; MIC ([22]; MRSA USA300 (Skin infection, sepsis)): >40 µg/mL; MIC ([27]; Erwinia amylovora, 1189, Erwinia amylovora 1189 (Fire blight on apples/pears)): 5 µg/mL (≈ 27 µM); MIC [28]: 5 µg/mL (≈ 27 µM); MIC [29]: 5 µg/mL (≈ 27 µM); MIC [30]: 20 µg/mL (≈ 108 µM); MIC [31]: 5 µg/mL (≈ 27 µM); MIC ([32]; Pseudomonas savastanoi): 40 µg/mL (≈ 216 µM); MIC [33]: 40 µg/mL (≈ 216 µM); MIC [34]: 5 µg/mL (≈ 27 µM)
[H]/N=C(/N)N[C@H]1[C@H](O)[C@@H](O)[C@H](O[C@@H]2O[C@@H](C)[C@](O)(C=O)[C@H]2O[C@@H]2O[C@@H](CO)[C@H](O)[C@@H](O)[C@@H]2NC)[C@@H](N/C(N)=N\[H])[C@@H]1O [Streptomycin, reference compound]	5 µg/mL (≈ 8.6 µM)	3.12 µg/mL (≈ 5.36 µM)	> 40 µg/mL	20 µg/mL (≈ 34.4 µM)	> 40 µg/mL	0.16 µg/mL (≈ 0.275 µM)	> 40 µg/mL	2.5 µg/mL (≈ 4.3 µM)	40 µg/mL (≈ 68.8 µM)	> 40 µg/mL	40 µg/mL (≈ 68.8 µM)	12.5 µg/mL (≈ 21.5 µM)	20 µg/mL (≈ 34.4 µM)	1.25 µg/mL (≈ 2.15 µM)	2.5 µg/mL (≈ 4.3 µM)	10 µg/mL (≈ 17.2 µM)	20 µg/mL (≈ 34.4 µM)	> 40 µg/mL	12.5 µg/mL (≈ 21.5 µM)	40 µg/mL (≈ 68.8 µM)	MIC ([3]; Erwinia amylovora CA11, streptomycin-resistant): >40 µg/mL; zone of inhibition at 100 µg/mL [4]: 19 mm; MIC ([8]; Erwinia amylovora DM1, streptomycin-resistant): >40 µg/mL; MIC ([11]; Erwinia amylovora 898, spontaneous streptomycin-resistant): >40 µg/mL; MIC ([12]; Xanthomonas arboricola pv. Juglandis 219 (walnut blight), read-out: MIC): 0.39 µg/mL (≈ 0.671 µM); zone of inhibition at 100 µg/mL [13]: 15 mm; Infection rate ([17]; 200 μg/mL, around day 6 post inoculation): 5.7%; zone of inhibition at 100 µg/mL [19]: 13 mm; zone of inhibition at 100 µg/mL [21]: 15 mm; MIC [24]: >40 µg/mL; MIC ([27]; Erwinia amylovora 1189 (Fire blight on apples/pears)): 20 µg/mL (≈ 34.4 µM); MIC ([27]; Erwinia amylovora, 1189, Erwinia amylovora 1189 (Fire blight on apples/pears), read-out: MIC): 10 µg/mL (≈ 17.2 µM); MIC [28]: 5 µg/mL (≈ 8.6 µM); MIC [29]: 0.16 µg/mL (≈ 0.275 µM); MIC [30]: 20 µg/mL (≈ 34.4 µM); MIC [31]: 0.31 µg/mL (≈ 0.533 µM); MIC ([32]; Pseudomonas savastanoi pv. savastanoi (Olive knot), read-out: MIC): 0.31 µg/mL (≈ 0.533 µM); MIC [33]: 2.5 to 5 µg/mL (≈ 4.3 to 8.6 µM); MIC [34]: 0.16 µg/mL (≈ 0.275 µM)
